Literature values in patent publication US20210030671A1, “LIQUID DOSAGE FORMS OF CINACALCET OR SALT THEREOF” (FTF PHARMA PRIVATE LIMITED, priority 2018, published 2021).
Where a name gives a salt, the structure may show the parent alone. Read-outs that look alike come from different tables or passages of the source.

For C[C@@H](NCCCc1cccc(C(F)(F)F)c1)c1cccc2ccccc12 [Cinacalcet hydrochloride], the solubility (in methanol or 95% ethanol) is given as “soluble” and the solubility (in water) is given as “slightly soluble”.

In the case of C[C@@H](NCCCc1cccc(C(F)(F)F)c1)c1cccc2ccccc12 [Cinacalcet, N-[1-(R)-(−)-(1-naphthyl)ethyl]-3-[3-(trifluoromethyl)phenyl]-1-aminopropane], the solubility (in water) is given as under 1 µg/mL.
